Reference: patent US20260240925A1, “METHOD AND COMPOSITION FOR PREVENTING OR TREATING MYOPIA” (Tsubota Laboratory, Inc., priority 2022, published 2026)

B1: IL-4: a cytokine necessary for M2 macrophage polarization (protein, UniProt P05112 25-153, looked up)
Interleukin-4: HKCDITLQEIIKTLNSLTEQKTLCTELTVTDIFAASKNTTEKETFCRAATVLRQFYSHHEKDTRCLGATAQQFHRHKQLIRFLKRLDRNLWGLAGLNSCPVKEANQSTLENFLERLKTIMREKYSKCSS

Legend:
Format in all cases: in vivo, mouse
[1] = test system: mice with LIM-induced myopia; experiment: Test Example 4: mast cell stabilizer vs histamine receptor antagonist instillation in mice with LIM-induced myopia; conditions: for choroidal thinning (change in choroidal thickness) / myopic shift in refraction (change in refractive value) / ocular elongation (change in axial length): eye drops, pemirolast potassium 0.1% solution, levocabastine 0.025% solution, vs control group
Protocol: (§1) The axial length, choroidal thickness, and refractivity of the mice in each group were measured. The axial length and the choroidal thickness were measured using spectral domain optical coherence tomography (Envisu R4310, manufactured by Leica). The refractivity was measured using an infrared photorefractor for mice (made by Professor Schaeffel, University of Tubingen).
Anti-allergic drugs are broadly divided into two types: mast cell stabilizers, which inhibit mast cell degranulation, and histamine receptor inhibitors, which inhibit the action of histamine secreted due to mast cell degranulation. In order to clarify whether the myopia suppression effect of the mast cell stabilizer instillation in Test Example 3 was due to the action of the anti-allergic drug or to the inhibition of mast cell degranulation, pemirolast potassium (0.1% solution) and levocabastine solution (0.025% solution) were administered as eye drops, respectively as a mast cell stabilizer and a histamine receptor inhibitor, to mice with LIM-induced myopia, and the myopia-suppressing effects were compared.

[2] = test system: lens-induced myopia model mice; experiment: Test Example 3: mast cell stabilizer instillation in lens-induced myopia model; conditions: for progression of myopia: ocular instillation, minus-lens-induced myopia mouse model; for choroidal thinning (change in choroidal thickness) / myopic shift in refraction (change in refractive value) / ocular elongation (change in axial length): once daily ocular instillation, 3 weeks myopia induction, cromolyn 4% solution, pemirolast potassium 0.1% solution, vs PBS group
Protocol: as §1
To verify the inhibitory effect of mast cell stabilizer instillation on myopia progression, a lens-induced myopia model was employed, wherein myopia was induced in mice by fitting the mice with minus lenses. During the myopia induction period, either cromolyn solution (4% solution) or pemirolast potassium (0.1% solution) was administered once daily by means of ocular instillation.
Following the test method described above, the axial length, refractive value, and choroidal thickness were measured in mice that underwent myopia induction for 3 weeks and ocular instillation of cromolyn solution or pemirolast potassium solution, as well as in control mice, and the amounts of changes therein were calculated (FIG. 7A, B, and C).

C57BL6J mice = experiment: Myopia suppression by IL-13 administration during the myopia induction period (minus lens); conditions: IL-13 during the myopia induction period
Protocol: as §1
Changes in blood flow were measured using swept-source optical coherence tomography (OCT S-1, Canon).

choroidal macrophages = experiment: M2 macrophage polarization in the choroid after IL-13 administration, flow cytometry; conditions: IL-13 during the myopia induction period
Protocol: The number of macrophages was measured using a flow cytometer (CytoFLEX S, Beckman Coulter) after digestion of the choroid and staining with F4/80 antibody and CD11b antibody. The number of M2 macrophages was measured in the same manner as for the measurement of the number of macrophages, except for the addition of a staining process with CD206 antibody.

[3] = test system: M2 macrophage markers CD163 and CD206; experiment: M2 macrophage polarization in the choroid after IL-4 administration (Western blot, real-time PCR); conditions: IL-4 10 μg/kg BW intraperitoneally
Protocol: Therefore, IL-4, which is a cytokine necessary for M2 macrophage polarization, was administered to mice, and whether M2 polarization would occur in the choroid was evaluated by means of analyzing the expression levels of M2 macrophage markers CD163 and CD206 (FIG. 3A and B).
C57BL6J mice (n=4 per group) were intraperitoneally administered 0.1 μg/100 μl (10 μg/kg BW) of IL-4 solution. Choroid, retina, and liver samples were taken at 0 hours (before administration) as well as 4, 24, and 48 hours after administration, and the expression of M2 macrophage marker genes was analyzed by Western blot and real-time PCR (FIG. 3). In addition, choroid and retina samples were collected at 0 hours (before administration) as well as 4 and 24 hours after administration, and the expression of oxidative-stress-related genes was analyzed by real-time PCR (FIG. 4).

[4] = test system: C57BL6 mice undergoing myopia induction; experiment: Myopia suppression by IL-4 administration in mice undergoing myopia induction (-30 D lens); conditions: IL-4 10 μg/kg BW intraperitoneally for 3 weeks
Protocol: as §1
Additionally, IL-4 was administered to mice undergoing myopia induction to evaluate whether there is a myopia suppression effect (FIG. 4).
C57BL6 mice undergoing myopia induction (−30 D lens, n=4) were intraperitoneally administered 0.1 μg/100 μl (10 μg/kg BW) of IL-4 solution for 3 weeks. C57BL6J mice undergoing myopia induction (0 D lens, −30 D lens, n=4 per group) were used as control groups.

Molecule | choroidal thinning (change in choroidal thickness) [1] | myopic shift in refraction (change in refractive value) [1] | ocular elongation (change in axial length) [1] | progression of myopia [2] | choroidal thinning (change in choroidal thickness) [2] | myopic shift in refraction (change in refractive value) [2] | ocular elongation (change in axial length) [2] | further results
C[C@@H]1CN([C@H]2CC[C@](C#N)(c3ccc(F)cc3)CC2)CC[C@]1(C(=O)O)c1ccccc1 [levocabastine] | observed | observed | observed |  |  |  |  | progression of myopia ([1]; ocular instillation, mice undergoing myopia induction by fitting a minus lens): not suppressed
Cc1cccn2c(=O)c(-c3nnn[nH]3)cnc12 [pemirolast potassium] | not observed | not observed | not observed | suppression | not observed | not observed | not observed | 
IL-13: a cytokine that causes M2 polarization of macrophages |  |  |  |  |  |  |  | choroidal thinning (C57BL6J mice): suppressed; minus-lens-induced ocular elongation (C57BL6J mice): suppressed; myopic shift in refraction (C57BL6J mice): suppressed; M2 macrophage polarization (choroidal macrophages): induced
O=C(O)c1cc(=O)c2c(OCC(O)COc3cccc4oc(C(=O)O)cc(=O)c34)cccc2o1 [cromolyn, cromolyn sodium] |  |  |  | suppression | not observed | not observed | not observed | 
B1 |  |  |  |  |  |  |  | expression of M2 markers CD163 and CD206 in the choroid ([3]; 0, 4, 24, 48 hours): increased the expression; M2 macrophage polarization ([3]; choroid): confirmed; expression of oxidative-stress-related genes ([3]; choroid and retina, 0, 4, 24 hours, real-time PCR): suppressed expression; expression of M2 macrophage marker genes ([3]; gene expression analysis): increased expression; choroidal thinning [4]: suppresses; ocular elongation [4]: suppresses; refractive loss [4]: suppresses
